Assay results taken from patent US10159254B2, “Weed control methods” (Syngenta Participations AG, priority 2013, dated 2018).
Values joined by “and” are separate entries in the source; they are usually repeats but may differ in a detail not shown here. Equal entries are not always repeated.

Columns and labels:
[1] = system: HPPD-tolerant soybean event SYHT04R; assay: Glasshouse: post-emergence HPPD herbicide damage with or without Sequestrene 138Fe, 7 DAA; assay type: in vivo; conditions: isoxaflutole, tembotrione
Experimental: (§1) Safening of Various HPPD-inhibiting Herbicides in HPPD-tolerant Soybean Events SYHT04R and SYHT0H2
(§2) An experiment is performed to determine whether the addition of chelating iron to the spray formulation can mitigate foliar bleaching injury from the HPPD herbicides mesotrione, bicyclopyrone, tembotrione, isoxaflutole, topramezone and pyrasulfatole when applied post-emergence to the HPPD-tolerant soybean events SYHT04R and SYHT0H2.
(§3) Soybean plants are grown in a glasshouse (24° C. day, 18° C. night; 65% relative humidity; 16 hour photoperiod). Two replicates are utilised in respect of SYHT0H2 (growth stage V1-V3) and three replicates are utilised in respect of SYHT04R (growth stage V1 to V3). Spray applications are applied post-emergence at […]. Herbicide damage was assessed 7 DAA (Days After Application).

[2] = system: HPPD-tolerant soybean event SYHT0H2; assay: as above; assay type: in vivo; conditions: isoxaflutole, tembotrione
Experimental: as §1, §2, §3

[3] = system: untransformed clonal tobacco plants (WT); assay: Wild type tobacco herbicide damage, mesotrione with or without Sequestrene 138; assay type: in vivo, Nicotiana tabacum cv Samsun (tobacco)
Experimental: Effect of Iron Chelates in Mitigating Foliar Bleaching Injury from HPPD Inhibiting Herbicides Across Various Transgenic HPPD Tolerant Tobacco Events Over-expressing HPPD Genes from Different Origins
This experiment is carried out to determine whether iron chelates can mitigate the bleaching injury from HPPD inhibiting herbicides across various transgenic HPPD tolerant tobacco events over-expressing HPPD genes from different origins. These experiments are conducted using three distinct HPPD-overexpressing Nicotiana tabacum cv Samsun (tobacco) lines, one over-expressing wheat HPPD, one overexpressing an Avena HPPD and one over-expressing a HPPD from a bacterial source, Pseudomonas florescens. For each transgenic line, five identical clonal plants were sprayed with each herbicide treatment. Two untransformed clonal tobacco plants are also sprayed ([…]) with each herbicide treatment. Assessments are carried out 3, 7 and 14 days after herbicide application.
All scores represent average % herbicide damage. […] An equivalent safening effect is not observed when the same chemical treatments are applied to wild type plants.

[4] = Sequestrene 138Fe 1000 g/ha, g ai/ha: mesotrione 200, bicyclopyrone, pyrasulfatole 100, topramazone 50
[5] = Sequestrene 138Fe 1000 g/ha, g ai/ha: mesotrione 800, bicyclopyrone, pyrasulfatole 400, topramazone 200
[6] = no Sequestrene 138Fe, g ai/ha: mesotrione 200, bicyclopyrone, pyrasulfatole 100, topramazone 50
[7] = no Sequestrene 138Fe, g ai/ha: mesotrione 800, bicyclopyrone, pyrasulfatole 400, topramazone 200

CS(=O)(=O)c1ccc(C(=O)C2C(=O)CCCC2=O)c([N+](=O)[O-])c1 [Mesotrione, mesotrione]
Herbicide damage SYHT04R [1, 4]: 2 | Herbicide damage SYHT04R [1, 5]: 17 | Herbicide damage SYHT04R [1, 6]: 8 | Herbicide damage SYHT04R [1, 7]: 32 | Herbicide damage SYHT0H2 [2, 4]: 3 | Herbicide damage SYHT0H2 [2, 5]: 18 | Herbicide damage SYHT0H2 [2, 6]: 13 | Herbicide damage SYHT0H2 [2, 7]: 23 | % herbicide damage ([3]; Trt 1: mesotrione 50 gai/ha alone, 3DAA): 60% and 65% | % herbicide damage ([3]; Trt 1: mesotrione 50 gai/ha alone, 7DAA): 80% | % herbicide damage ([3]; Trt 1: mesotrione 50 gai/ha alone, 14DAA): 85% | % herbicide damage ([3]; Trt 2: mesotrione 100 gai/ha alone, 3DAA): 70% | % herbicide damage ([3]; Trt 2: mesotrione 100 gai/ha alone, 7DAA): 80% | % herbicide damage ([3]; Trt 2: mesotrione 100 gai/ha alone, 14DAA): 85% and 90% | % herbicide damage ([3]; Trt 3: mesotrione 150 gai/ha alone, 3DAA): 55% and 60% | % herbicide damage ([3]; Trt 3: mesotrione 150 gai/ha alone, 7DAA): 80% | % herbicide damage ([3]; Trt 3: mesotrione 150 gai/ha alone, 14DAA): 85% | % herbicide damage ([3]; Trt 4: mesotrione 50 gai/ha + Sequestrene 138 1000 g/ha, 3DAA): 50% | % herbicide damage ([3]; Trt 4: mesotrione 50 gai/ha + Sequestrene 138 1000 g/ha, 7DAA): 80% | % herbicide damage ([3]; Trt 4: mesotrione 50 gai/ha + Sequestrene 138 1000 g/ha, 14DAA): 70% and 75% | % herbicide damage ([3]; Trt 5: mesotrione 100 gai/ha + Sequestrene 138 1000 g/ha, 3DAA): 60% | % herbicide damage ([3]; Trt 5: mesotrione 100 gai/ha + Sequestrene 138 1000 g/ha, 7DAA): 80% | % herbicide damage ([3]; Trt 5: mesotrione 100 gai/ha + Sequestrene 138 1000 g/ha, 14DAA): 75% and 85% | % herbicide damage ([3]; Trt 6: mesotrione 150 gai/ha + Sequestrene 138 1000 g/ha, 3DAA): 60% | % herbicide damage ([3]; Trt 6: mesotrione 150 gai/ha + Sequestrene 138 1000 g/ha, 7DAA): 80% | % herbicide damage ([3]; Trt 6: mesotrione 150 gai/ha + Sequestrene 138 1000 g/ha, 14DAA): 85% | % herbicide damage ([3]; Trt 7: mesotrione 200 gai/ha alone, 3DAA): 60% | % herbicide damage ([3]; Trt 7: mesotrione 200 gai/ha alone, 7DAA): 80% | % herbicide damage ([3]; Trt 7: mesotrione 200 gai/ha alone, 14DAA): 85% | % herbicide damage ([3]; Trt 8: mesotrione 300 gai/ha alone, 3DAA): 65% | % herbicide damage ([3]; Trt 8: mesotrione 300 gai/ha alone, 7DAA): 80% | % herbicide damage ([3]; Trt 8: mesotrione 300 gai/ha alone, 14DAA): 90% and 85% | % herbicide damage ([3]; Trt 9: mesotrione 400 gai/ha alone, 3DAA): 55% and 60% | % herbicide damage ([3]; Trt 9: mesotrione 400 gai/ha alone, 7DAA): 80% | % herbicide damage ([3]; Trt 9: mesotrione 400 gai/ha alone, 14DAA): 85% | % herbicide damage ([3]; Trt 10: mesotrione 200 gai/ha + Sequestrene 138 1000 g/ha, 3DAA): 55% and 60% | % herbicide damage ([3]; Trt 10: mesotrione 200 gai/ha + Sequestrene 138 1000 g/ha, 7DAA): 80% | % herbicide damage ([3]; Trt 10: mesotrione 200 gai/ha + Sequestrene 138 1000 g/ha, 14DAA): 85% | % herbicide damage ([3]; Trt 11: mesotrione 300 gai/ha + Sequestrene 138 1000 g/ha, 3DAA): 50% and 60% | % herbicide damage ([3]; Trt 11: mesotrione 300 gai/ha + Sequestrene 138 1000 g/ha, 7DAA): 80% | % herbicide damage ([3]; Trt 11: mesotrione 300 gai/ha + Sequestrene 138 1000 g/ha, 14DAA): 90% and 85% | % herbicide damage ([3]; Trt 12: mesotrione 400 gai/ha + Sequestrene 138 1000 g/ha, 3DAA): 55% and 60% | % herbicide damage ([3]; Trt 12: mesotrione 400 gai/ha + Sequestrene 138 1000 g/ha, 7DAA): 80% | % herbicide damage ([3]; Trt 12: mesotrione 400 gai/ha + Sequestrene 138 1000 g/ha, 14DAA): 90% and 85% | % herbicide damage ([3]; Trt 13: mesotrione 400 gai/ha alone, 3DAA): 50% and 55% | % herbicide damage ([3]; Trt 13: mesotrione 400 gai/ha alone, 7DAA): 80% | % herbicide damage ([3]; Trt 13: mesotrione 400 gai/ha alone, 14DAA): 95% and 90%
